Experimental data as given in ChEMBL document CHEMBL1777794, “Optimization of the physicochemical and pharmacokinetic attributes in a 6-azauracil series of P2X7 receptor antagonists leading to the discovery of the clinical candidate CE-224,535” (Bioorg Med Chem Lett, 2011).

Assays:
Format in all cases: functional, cell-based
P2X purinoceptor 7 [1] = biological target: T1, P2X purinoceptor 7 (Homo sapiens, UniProt Q99572); assay: Antagonist activity at P2X7 receptor in human LPS-stimulated monocytes assessed as inhibition of ATP-induced IL1-beta release by ELISA
T1 sequence (Q99572 whole entry): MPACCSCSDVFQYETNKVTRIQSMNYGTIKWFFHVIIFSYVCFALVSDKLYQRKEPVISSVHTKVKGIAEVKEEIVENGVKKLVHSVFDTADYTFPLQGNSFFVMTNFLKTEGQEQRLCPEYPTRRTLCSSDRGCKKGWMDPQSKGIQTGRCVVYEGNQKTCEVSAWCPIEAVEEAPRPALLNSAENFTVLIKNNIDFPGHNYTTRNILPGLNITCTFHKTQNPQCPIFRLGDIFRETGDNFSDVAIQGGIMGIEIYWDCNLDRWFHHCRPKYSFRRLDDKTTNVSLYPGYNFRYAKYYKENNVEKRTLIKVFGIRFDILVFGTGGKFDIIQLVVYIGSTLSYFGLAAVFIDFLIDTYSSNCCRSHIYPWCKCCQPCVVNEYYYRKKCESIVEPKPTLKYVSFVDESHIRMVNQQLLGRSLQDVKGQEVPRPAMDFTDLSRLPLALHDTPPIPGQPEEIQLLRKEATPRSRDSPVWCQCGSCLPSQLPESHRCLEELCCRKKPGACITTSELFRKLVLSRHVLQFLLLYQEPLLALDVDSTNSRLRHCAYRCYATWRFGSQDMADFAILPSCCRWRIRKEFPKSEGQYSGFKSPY

[2] = biological target: T2, P2X purinoceptor 7 (Homo sapiens) (UniProt Q99572); assay: Antagonist activity at P2X7 receptor in human LPS-stimulated monocytes assessed as inhibition of ATP-induced IL1-beta release at 5 uM by ELISA
T2 sequence (whole entry): T1 sequence (Q99572 whole entry)

[3] = biological target: T2, P2X purinoceptor 7 (Homo sapiens); assay: Antagonist activity at P2X7 receptor in human monocytes assessed as inhibition of LPS/ATP-induced IL1-beta release at 1 uM by ELISA
P2X purinoceptor 7 [4] = biological target: T1, P2X purinoceptor 7; assay: Antagonist activity at P2X7 receptor in human LPS-stimulated monocytes assessed as inhibition of ATP-induced IL1-beta release by ELISA in presence of human blood
P2X purinoceptor 7 [5] = biological target: T1, P2X purinoceptor 7; assay: Antagonist activity at P2X7 receptor expressed in HEK293 cells assessed as inhibition of ATP-induced YOPRO-1 uptake

SMILES | IC50 (P2X purinoceptor 7 [1]) [nM] | inhibition [2] [%] | also measured
O=C(NCC1CCCCC1)c1cc(-n2ncc(=O)[nH]c2=O)ccc1Cl | 1300 | – | –
CCCCC(CC)CNC(=O)c1cccc(-n2ncc(=O)[nH]c2=O)c1 (configuration not stated) | – | 0 | –
O=C(NCC1(O)CCCCCC1)c1cc(-n2ncc(=O)[nH]c2=O)ccc1F | – | – | inhibition [3]: 20%
O=C(NCCc1cccnc1)c1cc(-n2ncc(=O)[nH]c2=O)ccc1Cl | – | 22 | –
O=C(NCCc1ccncc1)c1cc(-n2ncc(=O)[nH]c2=O)ccc1Cl | – | 22 | –
CC(C)Cn1c(=O)cnn(-c2ccc(Cl)c(C(=O)NCC3(O)CCCCCC3)c2)c1=O | 34 | – | IC50 (P2X purinoceptor 7 [4]): 200 nM
Cn1c(=O)cnn(-c2ccc(Cl)c(C(=O)NCC3(O)CCCCCC3)c2)c1=O | 42 | – | –
O=C(NCCc1ccccc1)c1cc(-n2ncc(=O)[nH]c2=O)ccc1Cl | 940 | – | –
O=C(NCc1ccccc1)c1cc(-n2ncc(=O)[nH]c2=O)ccc1Cl | – | 15 | –
O=C(NCCCc1ccccc1)c1cc(-n2ncc(=O)[nH]c2=O)ccc1Cl | – | 0 | –
CCCCCCNC(=O)c1cc(-n2ncc(=O)[nH]c2=O)ccc1Cl | 3600 | – | –
CCn1c(=O)cnn(-c2ccc(Cl)c(C(=O)NCC3(O)CCCCCC3)c2)c1=O | 86 | – | IC50 (P2X purinoceptor 7 [4]): 185 nM
O=C(NCC1CCCC1)c1cc(-n2ncc(=O)[nH]c2=O)ccc1Cl | – | 0 | –
O=C(NCC1CCOCC1)c1cc(-n2ncc(=O)[nH]c2=O)ccc1Cl | > 5000 | – | –
CCCCC(CC)CNC(=O)c1cc(-n2ncc(=O)[nH]c2=O)ccc1Cl (configuration not stated) | – | – | IC50 (P2X purinoceptor 7 [5]): 1100 nM
